From patent US20140249135A1, “PIM KINASE INHIBITORS AND METHODS OF THEIR USE” (NOVARTIS AG, priority 2007, published 2014)
Where two headings read alike, the source gives them in different places.

Assays:
Assay type in all cases: biochemical
Pim3 kinase = Pim3 kinase (Homo sapiens, UniProt Q86V86); assay: Pim3 ATP depletion assay
Pim1 kinase = Pim1 kinase (Homo sapiens, UniProt P11309); assay: Pim1 ATP depletion assay;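 note: Luciferase-luciferin luminescence readout of residual ATP after PIM1 transfers phosphate to a peptide substrate, 40 µM ATP added, reaction run to roughly half ATP consumption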
Chain of Pim1 kinase (P11309 whole entry): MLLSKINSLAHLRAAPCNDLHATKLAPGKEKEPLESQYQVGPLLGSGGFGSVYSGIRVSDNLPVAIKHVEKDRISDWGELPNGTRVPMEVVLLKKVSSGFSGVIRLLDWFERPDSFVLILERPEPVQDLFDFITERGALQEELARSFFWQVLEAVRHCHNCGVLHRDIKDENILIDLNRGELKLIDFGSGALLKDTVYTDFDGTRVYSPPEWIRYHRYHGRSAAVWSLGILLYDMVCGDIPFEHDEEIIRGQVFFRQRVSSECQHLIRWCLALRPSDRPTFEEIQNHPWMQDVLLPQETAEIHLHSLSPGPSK

Pim2 kinase = Pim2 kinase (Homo sapiens, UniProt Q9P1W9); assay: Pim2 ATP depletion assay;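 note: Luciferase-based luminescent readout of ATP remaining after PIM2 phosphorylates a BAD peptide, final 5 nM enzyme, 4 µM ATP, 10 µM peptide, 2.5% DMSO, run to roughly half ATP consumption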
Chain of Pim2 kinase (Q9P1W9 whole entry): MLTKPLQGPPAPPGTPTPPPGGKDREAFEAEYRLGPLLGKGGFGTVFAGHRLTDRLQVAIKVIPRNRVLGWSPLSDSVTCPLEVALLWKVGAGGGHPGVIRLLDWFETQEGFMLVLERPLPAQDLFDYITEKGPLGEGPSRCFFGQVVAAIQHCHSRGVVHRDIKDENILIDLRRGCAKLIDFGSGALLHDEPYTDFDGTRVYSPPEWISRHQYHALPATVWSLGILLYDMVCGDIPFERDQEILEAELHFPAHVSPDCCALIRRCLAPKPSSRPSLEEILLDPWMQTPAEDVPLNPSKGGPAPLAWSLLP

[1] = Pim1 ATP depletion assay, read-out: IC50 (μM) PIM1
[2] = Pim1 ATP depletion assay, read-out: PIM1 IC50

Structure (SMILES) | IC50 (Pim3 kinase; read-out: IC50 (μM) PIM3) [µM] | IC50 (Pim1 kinase; [1]) [µM] | IC50 (Pim2 kinase; read-out: IC50 (μM) PIM2) [µM] | IC50 (Pim3 kinase; read-out: PIM3 IC50) [µM] | IC50 (Pim1 kinase; [2]) [µM] | IC50 (Pim2 kinase; read-out: PIM2 IC50) [µM] | IC50 (Pim1 kinase) [µM]
Nc1ccc(C2CCCCC2)nc1C(=O)Nc1cnccc1N1C[C@@H](N)C[C@@H](F)C1 [Example 284, 3-Amino-6-cyclohexyl-pyridine-2-carboxylic acid (3-amino-5-fluoro-3,4,5,6-tetrahydro-2H-[1,4′]bipyridinyl-3′-yl)-amide] | < 1 | < 1 | < 1 |  |  |  | 
Nc1cc(F)c(-c2cccc(S(N)(=O)=O)c2)nc1C(=O)Nc1cnccc1N1CCC[C@H](N)C1 [Example 497, 3-Amino-5-fluoro-6-(3-sulfamoyl-phenyl)-pyridine-2-carboxylic acid (3-amino-3,4,5,6-tetrahydro-2H-[1,4′]bipyridinyl-3′-yl)-amide] | < 1 | < 1 | < 1 |  |  |  | 
Cc1cccc(C)c1-c1nc(C(=O)Nc2cnccc2N2CCC[C@H](N)C2)c(N)cc1F [Example 509, 3-Amino-6-(2,6-dimethyl-phenyl)-5-fluoro-pyridine-2-carboxylic acid (3-amino-3,4,5,6-tetrahydro-2H-[1,4′]bipyridinyl-3′-yl)-amide] | < 1 | < 1 | < 1 |  |  |  | 
COc1ncccc1-c1ccc(N)c(C(=O)Nc2cnccc2-c2ccccc2C)n1 [Example 584, 5-amino-2′-methoxy-[2,3′]bi-pyridinyl-6-carboxylic acid (4-o-tolyl-pyridin-3-yl)-amide] |  |  |  | < 1 | < 1 | 1 to 10 | 
CC(C)NC(=O)c1ccc(F)c(-c2ccc(N)c(C(=O)Nc3cnccc3N3CCCC(C)(N)C3)n2)c1 (stereo not drawn) [Example 675, 3-Amino-6-(2-fluoro-5-isopropylcarbamoyl-phenyl)-pyridine-2-carboxylic acid (3-amino-3-methyl-3,4,5,6-tetra-hydro-2H-[1,4′]bipyridinyl-3′-yl)-amide] |  |  |  | < 1 | < 1 | < 1 | 
CC(C)NC(=O)c1ccc(F)c(-c2ccc(N)c(C(=O)Nc3cnccc3N3CCCC4(CCNC4)C3)n2)c1 (stereo not drawn) [Example 291, 3-Amino-6-(2-fluoro-5-isopropylcarbamoyl-phenyl)-pyridine-2-carboxylic acid [4-(2,7-diaza-spiro[4.5]dec-7-yl)-pyridin-3-yl]-amide] | < 1 | < 1 | < 1 |  |  |  | 
Nc1ccc(-c2ccccc2F)nc1C(=O)Nc1cnccc1-c1cncnc1 [Example 602, 3-amino-6-(2-fluorophenyl)-N-(4-pyrimidin-5-ylpyridin-3-yl)pyridine-2-carboxamide] |  |  |  | < 1 | < 1 | 1 to 10 | 
Nc1ccc(-c2ccccc2F)nc1C(=O)Nc1cnccc1N1CCC[C@H](O)C1 [Example 660, 3-Amino-6-(2-fluoro-phenyl)-pyridine-2-carboxylic acid (3-hydroxy-3,4,5,6-tetrahydro-2H-[1,4′]bipyridinyl-3′-yl)-amide] |  |  |  | < 1 | < 1 | < 1 | 
Nc1ccc(-c2cccc(CN3CCOCC3)c2)nc1C(=O)Nc1cnccc1N1CCC[C@H](N)C1 [Example 566, 3-Amino-6-(3-morpholin-4-ylmethyl-phenyl)-pyridine-2-carboxylic acid (3-amino-3,4,5,6-tetrahydro-2H-[1,4′]bipyridinyl-3′-yl)-amide] |  |  |  | < 1 | < 1 | < 1 | 
Nc1ccc(-c2ccccc2F)nc1C(=O)Nc1cnccc1N1CCCCC1 [Example 589, 3-amino-6-(2-fluoro-phenyl)-pyridine-2-carboxylic acid (3,4,5,6-tetrahydro-2H-[1,4′]bipyridinyl-3′-yl)-amide] |  |  |  | < 1 | < 1 | < 1 | 
Cc1ccc(S(=O)(=O)N2CCCCC2)cc1-c1ccc(N)c(C(=O)Nc2cnccc2N2CCC[C@H](N)C2)n1 [Example 318, 3-amino-6-[2-methyl-5-(piperidine-1-sulfonyl)-phenyl]-pyridine-2-carboxylic acid ((S)-3-amino-3,4,5,6-tetrahydro-2H-[1,4′]bi-pyridinyl-3′-yl)-amide] | < 1 | < 1 | < 1 |  |  |  | 
N[C@@H]1CN(c2ccncc2NC(=O)c2ccc(F)c(-c3ccccc3F)n2)CC[C@H]1O [Example 682, 5-Fluoro-6-(2-fluoro-phenyl)-pyridine-2-carboxylic acid (3-amino-4-hydroxy-3,4,5,6-tetra-hydro-2H-[1,4′]bipyridinyl-3′-yl)-amide] |  |  |  | < 1 | < 1 | < 1 | 
Cc1ccc(-c2ccc(N)c(C(=O)Nc3cnccc3N3CCC[C@H](N)C3)n2)nc1 [Example 725, 5-Amino-5′-methyl-[2,2′]bi-pyridinyl-6-carboxylic acid (3-amino-3,4,5,6-tetrahydro-2H-[1,4′]bipyridinyl-3′-yl)-amide] |  |  |  | < 1 | < 1 | < 1 | 
CC1(N)CCCN(c2ccncc2NC(=O)c2nc(-c3c(F)cccc3F)ncc2N)C1 (stereo not drawn) [Example 673, 5-Amino-2-(2,6-difluoro-phenyl)-pyrimidine-4-carboxylic acid (3-amino-3-methyl-3,4,5,6-tetrahydro-2H-[1,4′]bipyridinyl-3′-yl)-amide] |  |  |  | < 1 | < 1 | < 1 | 
CCOc1ccc(F)c(-c2ncc(N)c(C(=O)Nc3cnccc3N3CCC[C@H](N)C3)n2)c1 [Example 548, 5-Amino-2-(5-ethoxy-2-fluoro-phenyl)-pyrimidine-4-carboxylic acid (3-amino-3,4,5,6-tetrahydro-2H-[1,4′]bipyridinyl-3′-yl)-amide] |  |  |  | < 1 | < 1 | < 1 | 
N#Cc1cc(-c2ccncc2NC(=O)c2nc(-c3c(F)cccc3F)ccc2N)ccn1 [Example 618, 3-amino-N-(2′-cyano-4,4′-bipyridin-3-yl)-6-(2,6-difluorophenyl)pyridine-2-carboxamide] |  |  |  | < 1 | < 1 | < 1 | 
Nc1cnc(-c2c(F)cccc2F)nc1C(=O)Nc1cnccc1N1CCC[C@H](N)C1 [Example 270, 5-Amino-2-(2,6-difluoro-phenyl)-pyrimidine-4-carboxylic acid (3-amino-3,4,5,6-tetrahydro-2H-[1,4′]bipyridinyl-3′-yl)-amide] | < 1 | < 1 | < 1 |  |  |  | 
Nc1ccc(-c2ccccc2F)nc1C(=O)Nc1cnccc1-c1cnc(N)c(C(F)(F)F)c1 [Example 603, 3-amino-N-[6-amino-5-(tri-fluoromethyl)-3,4′-bipyridin-3′-yl]-6-(2-fluorophenyl)pyridine-2-carboxamide] |  |  |  | < 1 | < 1 | < 1 | 
Nc1ccc(-c2ccccc2F)nc1C(=O)Nc1cnccc1-c1cncc(F)c1 [Example 601, 3-amino-N-(5-fluoro-3,4′-bipyridin-3′-yl)-6-(2-fluorophenyl)pyridine-2-carboxamide] |  |  |  | < 1 | < 1 | < 1 | 
CCCNC(=O)c1ccc(F)c(-c2ccc(N)c(C(=O)Nc3cnccc3-c3cc(N)nc(C)n3)n2)c1 [Example 565, 3-Amino-6-(2-fluoro-5-propylcarbamoyl-phenyl)-pyridine-2-carboxylic acid [4-(6-amino-2-methyl-pyrimidin-4-yl)-pyridin-3-yl]-amide] |  |  |  | < 1 | < 1 | < 1 | 
NC(=O)c1ccc(N2CCCCC2)c(NC(=O)c2nccnc2N)c1 [Example 170, 3-amino-N-(5-carbamoyl-2-(piperidin-1-yl)phenyl)pyrazine-2-carboxamide] | < 1 | < 1 | 1 to 10 |  |  |  | 
NC1CC(C(F)(F)F)CN(c2ccncc2NC(=O)c2nc(-c3ccccc3F)ccc2F)C1 (stereo not drawn) [Example 280, 3-Fluoro-6-(2-fluoro-phenyl)-pyridine-2-carboxylic acid (3-amino-5-trifluoromethyl-3,4,5,6-tetrahydro-2H-[1,4′]bipyridinyl-3′-yl)-amide] | < 1 | < 1 | < 1 |  |  |  | 
Nc1ccc(-c2ccccc2C(F)(F)F)nc1C(=O)Nc1cnccc1N1CCC[C@H](N)C1 [Example 336] | < 1 |  | < 1 |  |  |  | < 1
CS(=O)(=O)c1ccc(-c2ccc(N)c(C(=O)Nc3cnccc3N3CCC[C@H](N)C3)n2)nc1 [Example 698, 5-Amino-5′-methanesulfonyl-[2,2′]bipyridinyl-6-carboxylic acid (3-amino-3,4,5,6-tetra-hydro-2H-[1,4′]bipyridinyl-3′-yl)-amide] |  |  |  | < 1 | < 1 | < 1 | 
NCC(=O)N1CCN(c2ccncc2NC(=O)c2nc(-c3ccccc3F)ccc2N)CC1 [Example 252, 3-Amino-6-(2-fluoro-phenyl)-pyridine-2-carboxylic acid {4-[4-(2-amino-acetyl)-piperazin-1-yl]-pyridin-3-yl}-amide] | < 1 | < 1 | < 1 |  |  |  | 
CC(C)Oc1ccc(F)c(-c2nc(C(=O)Nc3cnccc3N3CC[C@@H](N)[C@H](O)C3)c(N)cc2F)c1F [Example 666, 3-Amino-6-(2,6-difluoro-3-isopropoxy-phenyl)-5-fluoro-pyridine-2-carboxylic acid (4-amino-3-hydroxy-3,4,5,6-tetra-hydro-2H-[1,4′]bipyridinyl-3′-yl)-amide] |  |  |  | < 1 | < 1 | < 1 | 
CCCOc1ccc(F)c(-c2ccc(N)c(C(=O)Nc3cnccc3-c3cc(N)nc(SC)n3)n2)c1F [Example 532, 3-Amino-6-(2,6-difluoro-3-propoxy-phenyl)-pyridine-2-carboxylic acid [4-(6-amino-2-methylsulfanyl-pyrimidin-4-yl)-pyridin-3-yl]-amide] | < 1 | < 1 | < 1 |  |  |  | 
Nc1cc(-c2ccncc2NC(=O)c2cccc(-c3nccs3)n2)nc(C(F)(F)F)n1 [Example 647, N-{4-[6-amino-2-(trifluoro-methyl)pyrimidin-4-yl]-pyridin-3-yl}-6-(1,3-thiazol-2-yl)pyridine-2-carboxamide] |  |  |  | < 1 | < 1 | < 1 | 
